Experimental data as given in US7625889B2, “Substituted bis aryl and heteroaryl compounds as selective 5HT2A antagonists” (Aventis Pharmaceuticals Inc., priority 2005, dated 2009).
pKi: −log10 of the molar value.

What was measured:
5HT2A receptor site = target: T1, 5HT2A receptor site (Mus musculus, UniProt P35363); assay: Head Twitch Assay (5-MeODMT induced head twitch); type: in vivo; conditions: for ED50: mouse, sc, dose blocking 5-MeODMT (30 mg/kg i.p.) head twitch in 50% of male mice; for % effect @ 3 mg/kg: 3 mg/kg sc
T1 construct: from tissue; host or cells: live male mice (whole animal)
Description: This Example 177 illustrates the study of efficacy of the compounds of this invention at the 5HT2A receptor site in animal models.
5-MeODMT (5-Methoxy-N,N-dimethyltryptamine) Inhibition: Groups of male mice are administered test compounds at selected doses. At an appropriate interval thereafter, 5-MeODMT (dissolved in 0.5% ascorbic acid) is administered at a dose of 30 mg/kg i.p. Immediately after administration of 5-MeODMT, and continuing for the following 6 min, the number of head twitches for each animal is counted. […] The ED50 is calculated as the dose necessary to block head twitch in 50% of the test animals. All experiments are performed with at least 10 animals per condition.

human 5HT2A receptor = target: T2, human 5HT2A receptor (Homo sapiens, UniProt P28223); assay: Receptor Binding Assay, 5HT2A ([3H]N-methyl spiperone); conditions: BHK cells expressing human 5HT2A receptor, 2.5 nM [3H]N-methyl spiperone, 37° C.
T2 construct: expressed in transfected cells
Description: Cell Culture: BHK cells stably expressing the human 5HT2A receptor were maintained in Dulbecco's Modified Eagle's Medium supplemented with […] Geneticin, 1% Sodium Pyruvate, 1% Pen-Strep and 10% Fetal Calf Serum, and treated with 5 mM sodium butyrate for 24 h to increase receptor expression before harvesting. Cells were harvested by mechanical scraping, washed with Phosphate Buffered Saline, and stored at −80° C. in 10% DMSO in 1 mg/mil aliquots until used. Protein determination was made according to Lowry.
Receptor Binding Assays: The 5HT2A and D2L assays were conducted at 37° C. in a Tris buffer containing salts (50 mM Tris Buffer, pH 7.7; 120 mM NaCl; 5 mM KCl; 2 mM CaCl2; 1 mM MgCl2). Cell membranes (previously prepared and frozen) were rapidly thawed. Membranes were diluted to an appropriate concentration (to produce 100 μg protein/assay point for 5HT2A, and 58 μg protein/assay point for D2L) in Tris buffer and homogenized. Assays were conducted on 96-well plates, using 2.5 and 1 nM [^3H]N-methyl spiperone as radioligand for 5HT2A and D2L assays, respectively. Plates were incubated at 37° C. in a shaking water bath for 30 and 60 min, for 5HT2A and D2L, respectively. Nonspecific binding was defined using 100 μM methylsergide and eticlopride, for 5HT2A and D2L, respectively.
Assays were terminated by rapid filtration through Millipore MAFB or MAFC (5HT2C) filter plates (presoaked in 50 mM Tris HCl, pH 7.7, with 0.1% Brij) using a Millipore Cell Harvester. The filter plates were then washed with ice-cold 50 mM Tris buffer, pH 7.7, and allowed to dry overnight. 50 μl of Microscint scintillation cocktail were added and the plates were counted in a Packard Topcount scintillation counter.
IC50 and Ki calculations were performed using nonlinear regression one-site competition analysis (GraphPad, Prism), with top and bottom limits held constant at 0% and 100% inhibition, respectively. The percent inhibition at each drug concentration was the average of duplicate determinations. Except where indicated, each determination was performed 2 to 5 times.

T1 sequence (P35363 whole entry): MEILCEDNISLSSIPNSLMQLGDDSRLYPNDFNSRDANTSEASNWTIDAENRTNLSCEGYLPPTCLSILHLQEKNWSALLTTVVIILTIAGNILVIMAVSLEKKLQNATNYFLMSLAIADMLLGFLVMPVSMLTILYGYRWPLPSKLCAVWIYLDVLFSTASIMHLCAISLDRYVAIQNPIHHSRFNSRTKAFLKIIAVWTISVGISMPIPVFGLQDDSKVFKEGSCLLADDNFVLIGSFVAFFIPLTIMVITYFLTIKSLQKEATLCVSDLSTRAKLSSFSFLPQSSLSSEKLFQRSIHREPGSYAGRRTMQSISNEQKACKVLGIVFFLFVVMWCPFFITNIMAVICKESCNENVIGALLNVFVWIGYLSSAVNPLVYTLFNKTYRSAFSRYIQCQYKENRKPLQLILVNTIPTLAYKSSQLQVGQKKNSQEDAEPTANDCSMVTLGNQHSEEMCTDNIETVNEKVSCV
T2 sequence (P28223 whole entry): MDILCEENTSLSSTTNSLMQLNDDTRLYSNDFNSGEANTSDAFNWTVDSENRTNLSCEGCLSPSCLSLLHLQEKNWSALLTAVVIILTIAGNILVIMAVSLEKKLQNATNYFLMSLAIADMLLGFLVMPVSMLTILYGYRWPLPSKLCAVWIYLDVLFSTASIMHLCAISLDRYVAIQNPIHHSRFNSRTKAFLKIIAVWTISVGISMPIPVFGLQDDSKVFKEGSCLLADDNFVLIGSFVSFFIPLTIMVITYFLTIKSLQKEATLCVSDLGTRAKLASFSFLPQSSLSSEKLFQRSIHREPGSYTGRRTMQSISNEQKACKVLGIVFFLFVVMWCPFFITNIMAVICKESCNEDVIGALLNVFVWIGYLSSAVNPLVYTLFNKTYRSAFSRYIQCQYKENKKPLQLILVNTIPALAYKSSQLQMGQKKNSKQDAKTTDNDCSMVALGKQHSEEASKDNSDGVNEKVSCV

SMILES | % effect @ 1 mg/kg (5HT2A receptor site; 1 mg/kg sc, head twitch, male mice) | ED50 (5HT2A receptor site) | pKi (human 5HT2A receptor) | % effect @ 3 mg/kg (5HT2A receptor site; head twitch, male mice)
CN(C)CCN(Cc1ccccc1)Cc1cccc(-c2ccc3[nH]c(=O)oc3c2)c1.Cl [Example 3] | 100% | < 1 mg/kg | 9.05 | –
O=C(c1ccc(F)cc1)N(CCN1CCCC1)Cc1cc(-c2ccc3[nH]ccc3c2)ccc1F [Example 20, 4-Fluoro-N-[2-fluoro-5-(1H-indol-5-yl)-benzyl]-N-(2-pyrrolidin-1-yl-ethyl)-benzamide] | – | 0.27 mg/kg | 9.49 | –
O=C(c1ccc(F)cc1)N(CCN1CCCC1)Cc1cc(-c2ccc3[nH]c(=O)oc3c2)ccc1F [Example 21] | – | < 3 mg/kg | 9.59 | 60%
Cc1cc2cc(-c3ccc(F)c(CN(CCN(C)C)C(=O)c4ccc(F)cc4)c3)ccc2[nH]1 [Example 23] | – | 0.16 mg/kg | 9.43 | –
CN(C)CCN(Cc1cc(-c2ccc3[nH]ccc3c2)ccc1F)C(=O)c1ccc(F)cc1 [Example 26] | – | 0.82 mg/kg | 9.17 | –
CN1CCC(N(Cc2cccc(-c3ccc4[nH]ccc4c3)c2)C(=O)c2ccc(F)cc2)CC1 [Example 27] | – | 0.59 mg/kg | 9.15 | –
CN1CCC(N(Cc2cc(-c3ccc4[nH]ccc4c3)ccc2F)C(=O)c2ccc(F)cc2)CC1 [Example 34] | – | 1.09 mg/kg | 8.90 | –
Fc1ccc([C@H]2CNCCN2Cc2cc(-c3ccc4[nH]ncc4c3)ccc2F)cc1 [Example 42, {4-Fluoro-3-[2S-(4-fluoro-phenyl)-piperazin-1-ylmethyl]-phenyl}-1H-indazole] | – | 1.73 mg/kg | 9.21 | –
CC(=O)O.Fc1ccc(-c2ccc3[nH]ncc3c2)cc1CN1CCNC[C@@H]1c1cccs1 [Example 44] | – | 0.54 mg/kg | – | –
Fc1ccc(-c2ccc3[nH]ncc3c2)cc1CN1CCNCC1c1cccs1 (stereo not shown) [Example 47] | – | ~3 mg/kg | 8.91 | 50%
CC(=O)O.CN1CCN(Cc2cncc(-c3ccc4[nH]ccc4c3)c2)[C@@H](c2ccc(F)cc2)C1 [Example 91, 5-{5-[2S-(4-Fluoro-phenyl)-4-methyl-piperazin-1-ylmethyl]-pyridin-3-yl}-1H-indole acetate] | – | 0.41 mg/kg | 9.22 | –
CN1CCN(Cc2cc(-c3ccc4[nH]ccc4c3)ccc2F)[C@@H](c2ccc(F)cc2)C1 [Example 92, 5-{4-Fluoro-3-[2S-(4-fluoro-phenyl)-4-methyl-piperazin-1-ylmethyl]-phenyl}-1H-indole] | – | 0.53 mg/kg | – | –
CN1CCN(Cc2cc(-c3ccc4[nH]ccc4c3)co2)[C@@H](c2ccc(F)cc2)C1.O=C(O)C(F)(F)F [Example 94, 5-{5-[2S-(4-Fluoro-phenyl)-4-methyl-piperazin-1-ylmethyl]-furan-3-yl}-1H-indole; compound with trifluoro-acetate] | – | ~3 mg/kg | – | 50%
CC(=O)O.CN1CCN(Cc2cc(-c3ccc4[nH]c(=O)oc4c3)co2)[C@@H](c2ccc(F)cc2)C1 [Example 95, 6-{5-[2S-(4-Fluorophenyl)-4-methylpiperazine-1-ylmethyl]-furan-3-yl}-3H-benzoxazol-2-one] | – | 0.5 mg/kg | 8.72 | –
CC(=O)O.CN1CCN(Cc2cncc(-c3ccc4[nH]c(=O)oc4c3)c2)[C@@H](c2ccc(F)cc2)C1 [Example 98, 6-{5-[2S-(4-Fluoro-phenyl)-4-methyl-piperazin-1-ylmethyl]-pyridin-3-yl}-3H-benzooxazol-2-one acetate] | – | 0.49 mg/kg | 8.92 | –
CN(C)CCN(Cc1cc(-c2ccc3[nH]c(=O)oc3c2)ccc1F)C(=O)c1ccc(F)cc1 [Example 104, N-(2-Dimethylamino-ethyl)-4-fluoro-N-[2-fluoro-5-(2-oxo-2,3-dihydro-benzooxazol-6-yl)-benzyl]-benzamide] | – | 6.36 mg/kg | 9.51 | –
CN1CCC(N(Cc2ccc(F)cc2)Cc2cc(-c3ccc4[nH]ncc4c3)co2)CC1 [Example 119, (4-Fluoro-benzyl)-[4-(1H-indazol-5-yl)-furan-2-ylmethyl]-(1-methyl-piperidin-4-yl)-amine] | – | – | 9.11 | –
CN1CCN(Cc2cccc(-c3ccc4[nH]ccc4c3)c2)CC1 [Example 120, 5-[3-(4-Methyl-piperazin-1-ylmethyl)-phenyl]-1H-indole] | – | – | 7.19 | –
CN1CCCN(Cc2cccc(-c3ccc4[nH]ccc4c3)c2)CC1 [Example 121, 5-[3-(4-Methyl-[1,4]diazepan-1-ylmethyl)-phenyl]-1H-indole] | – | – | 7.09 | –
O=C(c1ccc(F)cc1)N(CCN1CCCC1)Cc1cc(F)cc(-c2ccc3[nH]ccc3c2)c1 [Example 133, 4-Fluoro-N-[3-fluoro-5-(1H-indol-5-yl)-benzyl]-N-(2-pyrrolidin-1-yl-ethyl)-benzamide] | – | 0.92 mg/kg | – | –
CN(C)CCN(Cc1ccc(F)cc1)Cc1cc(-c2ccc3[nH]cc(C#N)c3c2)ccc1F [Example 140, 5-(3-{[(2-Dimethylamino-ethyl)-(4-fluoro-benzyl)-amino]-methyl}-4-fluoro-phenyl)-1H-indole-3-carbonitrile trifluoro-acetate] | – | – | 7.65 | –
CC(=O)O.CN1CCN(Cc2cc(-c3ccc4[nH]ncc4c3)ccc2F)[C@@H](c2cccs2)C1 [Example 159, 5-[4-Fluoro-3-(4-methyl-2R-thiophen-2-yl-piperazin-1-ylmethyl)-phenyl]-1H-indazole acetate] | – | 0.04 mg/kg | – | –
CN1CCN(Cc2cc(-c3ccc4[nH]ncc4c3)co2)[C@@H](c2ccc(F)cc2)C1 [Example 161, 5-{5-[2S-(4-Fluoro-phenyl)-4-methyl-piperazin-1-ylmethyl]-furan-3-yl}-1H-indazole] | – | 0.16 mg/kg | – | –
CN1CCN(C(=O)c2cc(-c3ccc4[nH]ccc4c3)ccc2F)[C@@H](c2ccc(F)cc2)C1 [Example 171, [2-Fluoro-5-(1H-indol-5-yl)-phenyl]-[2S-(4-fluoro-phenyl)-4-methyl-piperazin-1-yl]-methanone] | – | – | 7.07 | –
Fc1ccc([C@H]2CNCCN2Cc2cc(-c3ccc4[nH]ccc4c3)ccc2F)cc1 [Example 174, 5-{4-Fluoro-3-[2S-(4-fluoro-phenyl)-piperazin-1-ylmethyl]-phenyl}-1H-indole acetate] | – | – | 9.05 | –
CN1CCN(Cc2cc(-c3ccc4[nH]cc(C#N)c4c3)ccc2F)[C@@H](c2ccc(F)cc2)C1 [Example 175, 5-{4-Fluoro-3-[2S-(4-fluoro-phenyl)-4-methyl-piperazin-1-ylmethyl]-phenyl}-1H-indole-3-carbonitrile] | – | – | 8.49 | –
